Experimental data published in patent US20250032490A1, “THERAPEUTIC REGIMENS FOR TREATMENT OF PAROXYSMAL NOCTURNAL HEMOGLOBINURIA” (Achillion Pharmaceuticals, Inc., priority 2017, published 2025).

What was measured:
[1] = Phase 2 study in PNH subjects: reticulocyte count; type: in vivo, human; settings: Compound 1 100 mg TID + IV eculizumab
Description: (§1) The starting dose of compound 1 is based upon group assignment. The Group 1 dose is 100mg three times daily (TID). The Group 2 dose is 150 mg TID. The Group 3 dose is 200 mg TID. The Group 4 dose will receive the optimal dose determined from Groups 1-3.
All doses are taken approximately 15-30 minutes after completion of a meal or snack.
This will be followed by a long-term extension phase.
(§2) 2 subjects in the first dose level of 100 mg TID have been completed and data collected through 4 weeks. Data collected include lactate dehydrogenase (LDH) levels, hemoglobin levels, reticulocytes, PNH red blood cells (Type III) percentage, C3 Fragment Deposition percentage, and bilirubin levels and their changes from baseline.
A reticulocyte count is a pharmacodynamic marker that is measured from blood drawn on Day 1, Week 1, Week 2, and Week 4 (FIGS. 15A & 15B and Table 17). A reticulocyte count measures the number of immature red blood cells in a blood sample. People who have PNH may have elevated reticulocyte counts because their bone marrow is producing a lot of new red blood cells.

[2] = Phase 2 study in PNH subjects: lactate dehydrogenase levels; type: in vivo, human; settings: Compound 1 100 mg TID + IV eculizumab
Description: as §1
All doses are taken approximately 15-30 minutes after completion of a meal or snack. […]
as §2
Lactate dehydrogenase is a pharmacodynamic marker that is measured from blood drawn on Day 1, Week 1, Week 2, and Week 4 (FIGS. 13A & 13B and Table 15). High levels of LDH in the blood can be an indication of hemolysis.

[3] = subject 003-001, DAY 1 (baseline)
[4] = subject 003-002, DAY 1 (baseline)

CC(=O)c1nn(CC(=O)N2C[C@H](F)C[C@H]2C(=O)Nc2cccc(Br)n2)c2ccc(-c3cnc(C)nc3)cc12 [Compound 1, (2S,4R)-1-(2-(3-acetyl-5-(2-methylpyrimidin-5-yl)-1H-indazol-1-yl)acetyl)-N-(6-bromopyridin-2-yl)-4-fluoropyrrolidine-2-carboxamide]
RETICULOCYTES Observed [1, 3]: 159 10^9/L | RETICULOCYTES CFB (change from baseline) ([1]; subject 003-001, DAY 1): 0 10^9/L | RETICULOCYTES CFB (change from baseline) ([1]; subject 003-001, WEEK 1): −39 10^9/L | RETICULOCYTES Observed ([1]; subject 003-001, WEEK 1): 120 10^9/L | RETICULOCYTES CFB (change from baseline) ([1]; subject 003-001, WEEK 2): −34 10^9/L | RETICULOCYTES Observed ([1]; subject 003-001, WEEK 2): 125 10^9/L | RETICULOCYTES CFB (change from baseline) ([1]; subject 003-001, WEEK 4): −64 10^9/L | RETICULOCYTES Observed ([1]; subject 003-001, WEEK 4): 95 10^9/L | RETICULOCYTES Observed [1, 4]: 250 10^9/L | RETICULOCYTES CFB (change from baseline) ([1]; subject 003-002, DAY 1): 0 10^9/L | RETICULOCYTES CFB (change from baseline) ([1]; subject 003-002, WEEK 1): −106 10^9/L | RETICULOCYTES Observed ([1]; subject 003-002, WEEK 1): 144 10^9/L | RETICULOCYTES CFB (change from baseline) ([1]; subject 003-002, WEEK 2): −85 10^9/L | RETICULOCYTES Observed ([1]; subject 003-002, WEEK 2): 165 10^9/L | RETICULOCYTES CFB (change from baseline) ([1]; subject 003-002, WEEK 4): −118 10^9/L | RETICULOCYTES Observed ([1]; subject 003-002, WEEK 4): 132 10^9/L | LDH Observed [2, 3]: 357 U/L | LDH CFB (change from baseline) ([2]; subject 003-001, DAY 1): 0 U/L | LDH CFB (change from baseline) ([2]; subject 003-001, WEEK 1): −83 U/L | LDH Observed ([2]; subject 003-001, WEEK 1): 274 U/L | LDH CFB (change from baseline) ([2]; subject 003-001, WEEK 2): −105 U/L | LDH Observed ([2]; subject 003-001, WEEK 2): 252 U/L | LDH CFB (change from baseline) ([2]; subject 003-001, WEEK 4): −86 U/L | LDH Observed ([2]; subject 003-001, WEEK 4): 271 U/L | LDH Observed [2, 4]: 210 U/L | LDH CFB (change from baseline) ([2]; subject 003-002, DAY 1): 0 U/L | LDH CFB (change from baseline) ([2]; subject 003-002, WEEK 1): −52 U/L | LDH Observed ([2]; subject 003-002, WEEK 1): 158 U/L | LDH CFB (change from baseline) ([2]; subject 003-002, WEEK 2): −40 U/L | LDH Observed ([2]; subject 003-002, WEEK 2): 170 U/L | LDH CFB (change from baseline) ([2]; subject 003-002, WEEK 4): −31 U/L | LDH Observed ([2]; subject 003-002, WEEK 4): 179 U/L
